The record followed here is patent US10925921B2, “Fermented Pennisetum extract” (Sagittarius Life Science Corp., priority 2016, dated 2021).

Molecules are shown by their SMILES.

Common to all, as to type: in vivo, BALB/c nu/nu mice
For test [1], the system named is human lung adenocarcinoma cell line, NCl-H441. In words: Tumor growth assay in orthotopic lung model, IVIS bioluminescence. The following applies: docetaxel 2.5 mg/kg, from the fourth week. How it is done: FIGS. 3(A) and (B) show the inhibitory effect of PPE on tumor growth of orthotropic lung tumor-bearing BALB/c nude mice. H441-luc were orthotopically injected into the lung of mice at a concentration of 0.8×10^6 cells/70 μL PBS. PPE treatments (three dosages 25, 50, and […].) twice a week by intraperitoneal injection into tumor-bearing animals over a period of 4 weeks. (A) Representative non-invasive bioluminescence images show tumor progression of mice in orthtopic model. (B) Bar graphs were quantified by Living Image analysis software (n=8-10). Data were analyzed by Student's t-test and are shown as mean±SD*P<0.05 compared with control. § P<0.05 compared with week 4 tumor group;
Male BALB/c nu/nu mice were used in the orthotopic model and divided into five groups, control group (5 mice), tumor group (10 mice), three experimental groups (25-PPE, 50-PPE and 100-PPE) (each group for 10 mice) and docetaxel group (8 mice). […]
The mice were injected with the cell solution of human lung adenocarcinoma cell line, NCl-H441, in matrigel (0.8×10^6 cells/70 μL/mice). […] The tumor growth was monitored by Non Invasion In Vivo Imaging System (IVIS).

The test system is the same in test [2]. In words: Survival (Kaplan-Meier) in orthotopic lung tumor-bearing mice. The following applies: docetaxel 2.5 mg/kg b.w., orthotopic model. The method, then: Male BALB/c nu/nu mice were used in the orthotopic model and divided into five groups, control group (5 mice), tumor group (10 mice), three experimental groups (25-PPE, 50-PPE and 100-PPE) (each group for 10 mice) and docetaxel group (8 mice). The mice of the control group and the tumor group were subjected to intraperitoneal injection (i.p.) with vehicle, while 10 mice of each of the experimental groups, 25-PPE group (25 mg/kg of PPE), 50-PPE group (50 mg/kg of PPE) and 100-PPE group (100 mg/kg of PPE), were i.p. administered with 25 mg/kg of PPE, 50 mg/kg of PPE and 100 mg/kg of PPE obtained in Example 1, respectively, and 8 mice of the docetaxel group were administered with 2.5 mg/kg of docetaxel.
The mice were injected with the cell solution of human lung adenocarcinoma cell line, NCl-H441, in matrigel (0.8×10^6 cells/70 μL/mice). Three days after injections, the PPEs at the above-mentioned doses were i.p. administered to the mice twice every two weeks. The tumor growth was monitored by Non Invasion In Vivo Imaging System (IVIS).

The test system is the same in test [3]. The test is described as follows: Computed tomography (CT) lung screening assay in orthotopic model. Particulars: docetaxel 2.5 mg/kg, fourth week; tumor group 11.1+/−2.8%. The text has this:
FIGS. 5(A) and (B) show the inhibitory effects of PPE on analysis of tumor volume in orthotopic model. (A) The micro-CT images and quantitative end-points for lung tumor growth. Longitudinal and transverse micro-CT images of tumor growth in control and treatment of PPE. Each tumor scanned by micro-CT was reconstructed to three-dimensional images (axial, sagittal, and coronal), and diameters measured periodically as indicated. Data represent presence of tumor value in each group. (B) The tissue of lung lesions in nude mice. Representative lung tumor formed in different group. Tumors observed in the lungs are indicated with a yellow arrow;
In the orthotopic model of Example 3, the mice were subjected to CT lung screening to detect the tumor size in lung at the fourth week. The tumor accounts for 11.1+/−2.8% of the lung in the tumor group, 10.1+/−3.9% in the 25-PPE group, 9.3+/−1.4% in the 50-PPE group, 7.5+/−2.3% in the 100-PPE group and 8.0+/−1.1% in the docetaxel group (see FIG. 5).

Regarding `CC(=O)O[C@@]12CO[C@@H]1C[C@H](O)[C@@]1(C)C(=O)[C@H](O)C3=C(C)[C@@H](OC(=O)[C@H](O)[C@@H](NC(=O)OC(C)(C)C)c4ccccc4)C[C@@](O)([C@@H](OC(=O)c4ccccc4)[C@H]21)C3(C)C` [docetaxel], the “tumor bioluminescence (IVIS)” value in test [1] is 0.5+/−0.07×10^7 photons/sec. Also, the “lifespan, Kaplan-Meier cumulative survival analysis” value in test [2] is recorded as “significant (p<0.05) increase in lifespan”. Also, in test [3], the “tumor share of the lung (CT tumor volume ratio)” value is listed as 8.0+/−1.1%.
